Laboratory results: ChEMBL document CHEMBL1132049, “Synthesis of novel analogues of the delta opioid ligand SNC-80 using REM resin” (Bioorg Med Chem Lett, 1999)

Experiments:
[1] = biological target: Kappa-type opioid receptor (Cavia porcellus, UniProt P41144); experiment: Binding affinity towards Opioid receptor kappa 1 using [3H]- U-69,593 (1.5 nM) as radioligand in guinea pig brain membranes; format: cell membranes, Membrane
[2] = biological target: T1, Delta-type opioid receptor (Homo sapiens, UniProt P41143); experiment: Binding inhibition of [3H]- -naltrindole (0.15 nM) to membranes in CHO cells expressing Opioid receptor delta 1; format: cell-based
T1 sequence (P41143 whole entry): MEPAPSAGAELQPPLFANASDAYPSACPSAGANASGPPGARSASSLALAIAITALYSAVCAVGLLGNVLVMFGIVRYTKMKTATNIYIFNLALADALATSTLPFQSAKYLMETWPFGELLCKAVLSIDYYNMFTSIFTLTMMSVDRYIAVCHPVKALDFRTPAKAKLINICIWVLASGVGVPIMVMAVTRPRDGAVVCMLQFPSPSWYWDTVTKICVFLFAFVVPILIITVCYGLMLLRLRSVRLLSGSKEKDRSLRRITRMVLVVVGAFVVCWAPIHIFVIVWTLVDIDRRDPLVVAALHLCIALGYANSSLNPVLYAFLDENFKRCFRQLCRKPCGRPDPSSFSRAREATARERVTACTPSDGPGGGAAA

Mu-type opioid receptor = Mu-type opioid receptor (Rattus norvegicus, UniProt P33535); experiment: Binding affinity towards mu opioid receptor using [3H]- -DAMGO (1.5 nM) as radioligand in rat brain membranes; format: cell membranes
Chain of Mu-type opioid receptor (P33535 whole entry): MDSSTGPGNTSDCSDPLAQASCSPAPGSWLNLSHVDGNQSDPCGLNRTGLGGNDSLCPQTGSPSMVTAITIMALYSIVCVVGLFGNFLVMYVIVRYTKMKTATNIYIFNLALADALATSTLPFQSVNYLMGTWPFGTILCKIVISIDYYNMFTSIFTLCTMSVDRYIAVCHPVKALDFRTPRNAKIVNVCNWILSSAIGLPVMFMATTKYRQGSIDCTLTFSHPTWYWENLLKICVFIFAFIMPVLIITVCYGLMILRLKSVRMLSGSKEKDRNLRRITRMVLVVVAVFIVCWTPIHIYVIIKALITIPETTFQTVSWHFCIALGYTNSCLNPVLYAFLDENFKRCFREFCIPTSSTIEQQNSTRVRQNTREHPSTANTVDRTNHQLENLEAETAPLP

[3] = biological target: T1, Delta-type opioid receptor; experiment: Compound was tested for inhibition of binding of [3H]- -naltrindole (0.15 nM) to membranes from CHO cells expressing human delta opioid receptor; format: cell membranes

Chain of Kappa-type opioid receptor (P41144 whole entry): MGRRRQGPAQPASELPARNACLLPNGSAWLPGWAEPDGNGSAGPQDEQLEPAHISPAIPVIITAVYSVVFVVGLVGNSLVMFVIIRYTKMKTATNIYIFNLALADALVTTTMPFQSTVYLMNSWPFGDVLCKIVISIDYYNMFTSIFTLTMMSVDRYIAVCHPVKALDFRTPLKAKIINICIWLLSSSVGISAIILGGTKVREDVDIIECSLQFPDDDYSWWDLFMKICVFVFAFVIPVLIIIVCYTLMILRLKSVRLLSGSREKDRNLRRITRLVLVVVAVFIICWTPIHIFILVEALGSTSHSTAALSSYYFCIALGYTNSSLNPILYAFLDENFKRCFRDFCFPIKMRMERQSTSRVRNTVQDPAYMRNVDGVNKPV

SMILES	IC50 [1] [µM]	IC50 [2] [µM]	IC50 (Mu-type opioid receptor) [µM]	IC50 [3] [µM]
C=CCN1CCN([C@@H](c2ccccc2)c2ccc(C(=O)N(CC)CC)cc2)CC1	> 10	0.0041	> 10	
C=CCN1CCN([C@H](c2ccc(C(=O)N(CC)CC)cc2)c2cccc(OC)c2)CC1	> 10	0.0074	> 10	
C=CCN1CCN(C(c2ccccc2)c2ccc(C(=O)N(CC)CC)cc2)CC1 (configuration not stated)			> 10	0.005
C=CCN1CCN(C(c2ccccc2)c2ccc(C(=O)Nc3ccc(OC)cc3)cc2)CC1 (configuration not stated)		1.9		
C=CCN1CCN(C(c2ccccc2)c2ccc(-c3cccnc3)cc2)CC1 (configuration not stated)		0.5		
C=CCN1CCN(C(c2ccccc2)c2ccc(C(=O)NCC)cc2)CC1 (configuration not stated)		0.36		
C=CCN1CCN(C(c2ccccc2)c2ccc(C(=O)N(CCC)CC3CC3)cc2)CC1 (configuration not stated)		0.003	> 10	
C=CCN1CCN(C(c2ccccc2)c2ccc(-c3cccs3)cc2)CC1 (configuration not stated)		2.6		
C=CCN1CCN(C(c2ccccc2)c2ccc(C(=O)N3CCCCC3)cc2)CC1 (configuration not stated)		0.0824	> 21.6	
C=CCN1CCN(C(c2ccccc2)c2ccc(C(=O)O)cc2)CC1 (configuration not stated)		8.1		
C=CCN1CCN(C(c2ccccc2)c2ccc(C(=O)OC)cc2)CC1 (configuration not stated)		0.607		
C=CCN1C[C@H](C)N(C(c2ccccc2)c2ccccc2)C[C@H]1C		0.42	0.38	
C=CCN1CCN(C(c2ccccc2)c2ccc(-c3ccccn3)cc2)CC1 (configuration not stated)		0.25		
C=CCN1CCN(C(c2ccccc2)c2ccc(C(=O)N(C)C)cc2)CC1 (configuration not stated)		0.0443	> 50	
C=CCN1CCN(C(c2ccccc2)c2ccc(C(=O)N(CCC)CCC)cc2)CC1 (configuration not stated)		0.0072	41.6	
C=CCN1CCN(C(c2ccccc2)c2ccc(C(=O)N(Cc3cccnc3)CC(OCCC)OCCC)cc2)CC1 (configuration not stated)		0.004	> 10	
C=CCN1CCN(C(c2ccccc2)c2ccc(-c3ccccc3)cc2)CC1 (configuration not stated)		1.72		
C=CCN1CCN(C(c2ccccc2)c2ccc(C(=O)OCC)cc2)CC1 (configuration not stated)		1.39		
C=CCN1C[C@H](C)N([C@H](c2ccccc2)c2ccc(C(=O)N(CC)CC)cc2)C[C@H]1C	> 10	0.0011	6.5	
C=CCN1C[C@H](C)N([C@@H](c2ccc(C(=S)N(CC)CC)cc2)c2cccc(OC)c2)C[C@H]1C	8.6	0.0053	6.3	
C=CCN1C[C@H](C)N([C@@H](c2ccc(C(=O)O)cc2)c2cccc(OC)c2)C[C@H]1C		0.45	> 10	
C=CCN1C[C@H](C)N([C@@H](c2ccc(C(=O)OC)cc2)c2cccc(OC)c2)C[C@H]1C		0.24	3.6	
C=CCN1C[C@H](C)N([C@@H](c2ccc(-c3ccccn3)cc2)c2cccc(OC)c2)C[C@H]1C	2.1	0.022	6.4	
